Assays:
[1] = test system: female Wistar rat; experiment: Animal test in vivo: average food consumption (appetite inhibition); conditions: for Average food consumptions: positive control 15 mg/kg; for average food consumptions compared with the blank control group (in words): during the administration of the drugs, pure glycosides 50 mg/kg
Description: (§1) 6-7 weeks-old female Wistar rat (purchased from Shanghai Laboratory Animal Center of Chinese Academy of Sciences)(weight: 110-150 g) was raised alone in suspended metal cage. After the experimental rat was obtained, it was checked to make sure whether they were abnormal or had obvious disease signs. The rat can freely obtain the drinking-water and feed for rodent (RM1(E)AQC). The feeding cage was controlled to receive 12 h illumination (from 07:00 to 19:00) and to be in a dark environment for 12 h, and the room temperature and relative humidity were controlled to be 21±3° C. and 55±15% respectively and not to deviate the upper and lower limit. The rats were randomly divided into groups depending on the body weight according to random number table to make the average weight in each group are approximately equal. Before the test, the rats were pre-trained suitably for one week (from −7th day to −1st day) during which the consumptions of feed and drinking water were recorded.
(§2) Each group of drug to be tested, positive control group, and blank control group consisted of 5 rats, respectively. The tested drug and positive control drug were mixed with wheaten starch before the administration and formulated to suspension with required doses according to 10 mL/kg of administration volume. The positive control drug was sibutramine hydrochloride and the administration dosage was 15 mg/kg body weight. In the blank control group, only equal amount of starch was used to formulate suspension for administration by […] in a same volume. The administration time is the 1st day, 2nd day and 3rd day. The body weight of the rat, the consumption of the feed (the weight of the feeding hopper) and consumption of the drinking water (bottle weight) were recorded from the −7th day to the 7th day.

[2] = Animal test in vivo: average body weight; set-up: species or system rat; conditions: for Average body weight: positive control 15 mg/kg; for body weight compared with the blank control group (in words): during the administration of the drugs, pure glycosides 50 mg/kg
Description: as §1, §2

SMILES: CO[C@H]1C[C@H](O[C@H]2[C@@H](OC)C[C@H](O[C@H]3CC[C@@]4(C)C(=CC[C@]5(O)[C@@H]4C[C@@H](OC(=O)/C=C/c4ccccc4)[C@@]4(C)[C@]5(O)CC[C@@]4(O)C(C)=O)C3)O[C@@H]2C)O[C@@H](C)[C@H]1O[C@H]1C[C@H](OC)[C@H](O[C@H]2C[C@@H](OC)[C@@H](O)[C@H](C)O2)[C@@H](C)O1 [Wilfoside K1N, wilfoside K1N]
- Average food consumptions ([1]; 1st day (administration day), Table 4, wilfosides 50 mg/kg): 2.8 g
- Average food consumptions ([1]; 2nd day (administration day), Table 4, wilfosides 50 mg/kg): 6.4 g
- Average food consumptions ([1]; 3rd day (administration day), Table 4, wilfosides 50 mg/kg): 2.8 g
- Average food consumptions ([1]; 4th day (after administration on days 1-3), Table 4, wilfosides 50 mg/kg): 8.4 g
- Average food consumptions ([1]; 5th day (after administration on days 1-3), Table 4, wilfosides 50 mg/kg): 9.2 g
- Average food consumptions ([1]; 6th day (after administration on days 1-3), Table 4, wilfosides 50 mg/kg): 13.6 g
- Average food consumptions ([1]; 7th day (after administration on days 1-3), Table 4, wilfosides 50 mg/kg): 14.8 g
- average food consumptions compared with the blank control group (in words) ([1]; crude extract 300 mg/kg): greatly different from those in the blank group
- Average food consumptions ([1]; −1st day (before administration), Table 4, wilfosides 50 mg/kg): 13.2 g
- Average food consumptions ([1]; −2nd day (before administration), Table 4, wilfosides 50 mg/kg): 13.6 g
- Average food consumptions ([1]; −3rd day (before administration), Table 4, wilfosides 50 mg/kg): 13.2 g
- Average food consumptions ([1]; −4th day (before administration), Table 4, wilfosides 50 mg/kg): 14.4 g
- Average food consumptions ([1]; −5th day (before administration), Table 4, wilfosides 50 mg/kg): 14.8 g
- Average food consumptions ([1]; −6th day (before administration), Table 4, wilfosides 50 mg/kg): 10.8 g
- Average food consumptions ([1]; −7th day (before administration), Table 4, wilfosides 50 mg/kg): 7.6 g
- Average body weight ([2]; 1st day (administration day), Table 6, wilfosides 50 mg/kg): 136.4 g
- Average body weight ([2]; 2nd day (administration day), Table 6, wilfosides 50 mg/kg): 134.4 g
- Average body weight ([2]; 3rd day (administration day), Table 6, wilfosides 50 mg/kg): 130.4 g
- Average body weight ([2]; 4th day (after administration on days 1-3), Table 6, wilfosides 50 mg/kg): 134.2 g
- Average body weight ([2]; 5th day (after administration on days 1-3), Table 6, wilfosides 50 mg/kg): 136.8 g
- Average body weight ([2]; 6th day (after administration on days 1-3), Table 6, wilfosides 50 mg/kg): 139.2 g
- Average body weight ([2]; 7th day (after administration on days 1-3), Table 6, wilfosides 50 mg/kg): 144 g
- body weight compared with the blank control group (in words) ([2]; crude extract 300 mg/kg): greatly different from those in the blank group
- Average body weight ([2]; −1st day (before administration), Table 6, wilfosides 50 mg/kg): 148.8 g
- Average body weight ([2]; −2nd day (before administration), Table 6, wilfosides 50 mg/kg): 146.4 g
- Average body weight ([2]; −3rd day (before administration), Table 6, wilfosides 50 mg/kg): 143.6 g
- Average body weight ([2]; −4th day (before administration), Table 6, wilfosides 50 mg/kg): 141.6 g
- Average body weight ([2]; −5th day (before administration), Table 6, wilfosides 50 mg/kg): 140 g
- Average body weight ([2]; −6th day (before administration), Table 6, wilfosides 50 mg/kg): 137.6 g
- Average body weight ([2]; −7th day (before administration), Table 6, wilfosides 50 mg/kg): 134.8 g

SMILES: CO[C@H]1C[C@H](O[C@H]2[C@@H](OC)C[C@H](O[C@H]3CC[C@@]4(C)C(=CC[C@]5(O)[C@@H]4C[C@@H](OC(=O)/C=C/c4ccccc4)[C@@]4(C)[C@]5(O)CC[C@@]4(O)C(C)=O)C3)O[C@@H]2C)O[C@@H](C)[C@H]1O[C@H]1C[C@H](OC)[C@H](O[C@H]2C[C@@H](OC)[C@@H](O[C@@H]3O[C@H](CO)[C@@H](O)[C@H](O)[C@H]3O)[C@H](C)O2)[C@@H](C)O1 [Cynauricuoside A, cynauricuoside A]
- Average food consumptions ([1]; 1st day (administration day), Table 1, crude extract 300 mg/kg, others 50 mg/kg): 9.2 g
- Average food consumptions ([1]; 2nd day (administration day), Table 1, crude extract 300 mg/kg, others 50 mg/kg): 10.8 g
- Average food consumptions ([1]; 3rd day (administration day), Table 1, crude extract 300 mg/kg, others 50 mg/kg): 9.2 g
- Average food consumptions ([1]; 4th day (after administration on days 1-3), Table 1, crude extract 300 mg/kg, others 50 mg/kg): 15.2 g
- Average food consumptions ([1]; 5th day (after administration on days 1-3), Table 1, crude extract 300 mg/kg, others 50 mg/kg): 13.6 g
- Average food consumptions ([1]; 6th day (after administration on days 1-3), Table 1, crude extract 300 mg/kg, others 50 mg/kg): 13.2 g
- Average food consumptions ([1]; 7th day (after administration on days 1-3), Table 1, crude extract 300 mg/kg, others 50 mg/kg): 13.6 g
- average food consumptions compared with the blank control group (in words) ([1]; crude extract 300 mg/kg): greatly less than those in the blank control group
- Average food consumptions ([1]; −1st day (before administration), Table 1, crude extract 300 mg/kg, others 50 mg/kg): 12.4 g
- Average food consumptions ([1]; −2nd day (before administration), Table 1, crude extract 300 mg/kg, others 50 mg/kg): 14.4 g
- Average food consumptions ([1]; −3rd day (before administration), Table 1, crude extract 300 mg/kg, others 50 mg/kg): 13.6 g
- Average food consumptions ([1]; −4th day (before administration), Table 1, crude extract 300 mg/kg, others 50 mg/kg): 14 g
- Average food consumptions ([1]; −5th day (before administration), Table 1, crude extract 300 mg/kg, others 50 mg/kg): 13.6 g
- Average food consumptions ([1]; −6th day (before administration), Table 1, crude extract 300 mg/kg, others 50 mg/kg): 11.2 g
- Average food consumptions ([1]; −7th day (before administration), Table 1, crude extract 300 mg/kg, others 50 mg/kg): 14 g
- Average body weight ([2]; 1st day (administration day), Table 3, crude extract 300 mg/kg, others 50 mg/kg): 158.8 g
- Average body weight ([2]; 2nd day (administration day), Table 3, crude extract 300 mg/kg, others 50 mg/kg): 156.4 g
- Average body weight ([2]; 3rd day (administration day), Table 3, crude extract 300 mg/kg, others 50 mg/kg): 153.6 g
- Average body weight ([2]; 4th day (after administration on days 1-3), Table 3, crude extract 300 mg/kg, others 50 mg/kg): 156.8 g
- Average body weight ([2]; 5th day (after administration on days 1-3), Table 3, crude extract 300 mg/kg, others 50 mg/kg): 158.4 g
- Average body weight ([2]; 6th day (after administration on days 1-3), Table 3, crude extract 300 mg/kg, others 50 mg/kg): 164.4 g
- Average body weight ([2]; 7th day (after administration on days 1-3), Table 3, crude extract 300 mg/kg, others 50 mg/kg): 166.8 g
- body weight compared with the blank control group (in words) ([2]; crude extract 300 mg/kg): the tendency of body weight change was greatly different
- Average body weight ([2]; −1st day (before administration), Table 3, crude extract 300 mg/kg, others 50 mg/kg): 163.6 g
- Average body weight ([2]; −2nd day (before administration), Table 3, crude extract 300 mg/kg, others 50 mg/kg): 160.4 g
- Average body weight ([2]; −3rd day (before administration), Table 3, crude extract 300 mg/kg, others 50 mg/kg): 158 g
- Average body weight ([2]; −4th day (before administration), Table 3, crude extract 300 mg/kg, others 50 mg/kg): 156 g
- Average body weight ([2]; −5th day (before administration), Table 3, crude extract 300 mg/kg, others 50 mg/kg): 154.4 g
- Average body weight ([2]; −6th day (before administration), Table 3, crude extract 300 mg/kg, others 50 mg/kg): 152.8 g
- Average body weight ([2]; −7th day (before administration), Table 3, crude extract 300 mg/kg, others 50 mg/kg): 150 g

— patent US9012611B2, “Use of 3,8,12,14, 17,20-oxo-substituted pregnene glycosides in the preparation of healthcare products, food additives and pharmaceuticals for the inhibition of appetite” (Institute of Materia Medica, Chinese Academy of Sciences, priority 2010, dated 2015)
